Assay results reported in US6686353B1, “Diarylalkyl cyclic diamine derivatives as chemokine receptor antagonists” (Teijin Intellectual Property Center Limited, priority 1996, dated 2004).
Like-named read-outs stand apart in the source and are kept apart here.

Key:
[1] = target: T1, human MCP-1 binding to THP-1 cells (Homo sapiens, UniProt P41597); experiment: Inhibition of [125I]-labeled human MCP-1 binding to THP-1 cells; settings: at 100 μM test compound; read-out: inhibitory activity (inhibition of human MCP-1 binding to THP-1 cells)
T1 construct: endogenous in cells; host or cells: THP-1 (human monocytic leukemia cell line), whole cells
T1 sequence (P41597 1-360 isoform P41597-2): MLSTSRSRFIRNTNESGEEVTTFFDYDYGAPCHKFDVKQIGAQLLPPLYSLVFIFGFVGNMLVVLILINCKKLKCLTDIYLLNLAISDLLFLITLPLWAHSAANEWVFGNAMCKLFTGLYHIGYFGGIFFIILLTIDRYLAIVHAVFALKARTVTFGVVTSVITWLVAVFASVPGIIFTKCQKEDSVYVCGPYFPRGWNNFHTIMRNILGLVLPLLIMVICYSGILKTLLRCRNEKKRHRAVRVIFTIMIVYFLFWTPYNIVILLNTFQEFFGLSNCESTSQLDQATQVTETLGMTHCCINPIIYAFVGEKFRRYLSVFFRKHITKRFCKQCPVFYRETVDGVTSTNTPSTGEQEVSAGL
Excerpt: Measurement of Inhibition of MCP-1 Binding to TP-1 Cells
1. Construction of Recombinant Baculovirus Carrying the Human MCP-1 Gene
Based on the previously published human MCP-1 gene sequence (for example T. Yoshimura et al., Febs Letters, 1989, 244, 487-493), two synthetic DNA primers (5′-[…]-3′ and 5′-[…]-3′) flanked by restriction enzyme sites were used to amplify a DNA fragment from cDNA derived from human endothelial cells (purchased from Kurabow Co.); the amplified fragment was cut with the restriction enzymes (PstI and XbaI), ligated into a transfer vector pVL1393 (Invitrogen Co.), and the resulting vector was co-transfected along with infectious baculovirus into Sf-9 insect cells and the supernatant was plaque assayed to yield human MCP-1 gene baculovirus recombinant.
2. Synthesis of [^125I]-labeled Human MCP-1 Expressed in Baculovirus
Using the method of K. Ishii et al. (Biochem Biophys Research Communications 1995, 206, 955-961), 5×10^6 Sf-6 insect cells was infected with 5×10^7 PFU (plaque forming units) of the above human MCP-1 recombinant baculovirus and cultured for 7 days in Ex-Cell 401 medium. The culture supernatant was affinity purified using a heparin Sepharose column (Pharmacia Co.) and then further purified using reverse phase HPLC (Vydac C18 column) to prepare purified human MCP-1. The purified human MCP-1 was protein labeled by Amersham Co. using the Bolton Hunter method to yield [^125I]-labeled baculovirus expressed human MCP-1 (specific activity 2000 Ci/mmol).
3. Measurement of Inhibition of Binding of [^125I]-labeled Baculovirus Expressed Human MCP-1 to THP-1 Cells
(§1) Human monocytic leukemia cell line THP-1 was suspended in assay buffer (RPMI-1640 (Gibco-BRL Co.) containing 0.1% BSA and 25 mM HEPES adjusted to pH 7.4) to give a cell suspension of a concentration of 1×10^7 cells/mL. The test compound was diluted in the assay buffer and used as the test compound solution. [^125I]-labeled human MCP-1 described above was diluted in assay buffer to 1 mCi/mL and used as the labeled ligand solution. In a 96 well filter plate (Millipore Co.), 25 μL of test compound solution, 25 μL of labeled ligand solution and 50 μL of cell suspension were aliquoted into each well in this order, stirred (total reaction volume 100 μL), and incubated for one hour at 18° C.
(§2) After the reaction, the reaction solution was filtered, and the filter was washed twice with 200 μL of cold PBS (200 μL of cold PBS was added and then filtered). The filter was removed and placed in an RIA tube (Iuchi Seieido Co.,), and the radioactivity retained by the cells on the filter were measured using a gamma counter (Aloka Co.).
To calculate the ability of test compound to inhibit binding of human MCP-1 to THP-1 cells, non-specific binding determined by adding 100 ng of unlabeled human MCP-1 in place of the test compound was subtracted, while the counts with no test compound added was taken as 100%.
Inhibition (%)=(1−(A−B)/(C−B))×100
(A, counts with test compound added; B, counts with 100 ng of unlabeled human […] added; C, counts with [^125I]-labeled human MCP-1 added).

MCP-1 receptor = target: T2, MCP-1 receptor (Homo sapiens, UniProt P41597); experiment: Inhibition of binding of [125I]-labeled human MCP-1 to cells expressing the MCP-1 receptor (293-EBNA transfectant); settings: dose dependent inhibition; 293-EBNA cells expressing MCP-1 receptor; read-out: 50% inhibitory concentration (IC50), MCP-1 binding to MCP-1 receptor expressing cells
T2 construct: expressed in transfected cells
T2 sequence (P41597 1-360 isoform P41597-2): T1 sequence (P41597 1-360 isoform P41597-2)
Excerpt: Measurement of Inhibition of Binding of [^125I]-labeled Human MCP-1 to Cells Expressing the MCP-1 Receptor
1. Derivation of Cells Expressing the MCP-1 Receptor
cDNA fragment containing the MCP-1 receptor reported by S. Yamagami et al., Biochemical Biophysical Research Communications 1994, 202, 1156-1162) was cloned into the expression plasmid pCEP4 (Invitrogen Co.) at the NotI site, and the plasmid obtained was transfected into the human kidney epithelial cell line 293-EBNA using the Lipofectamine reagent (Gibco-BRL Co.). The cells were cultured in the presence of the selective agent (Hygromycin), and a stably expressing transfectant line was obtained. The express ion of the receptor was confirmed by binding of [^125I]-labeled human MCP-1.
2. Measurement of Inhibition of Binding of [^125I]-labeled Baculovirus Expressed Human MCP-1 to the MCP-1 Receptor Expressing Cells
The MCP-1 receptor expressing cells on tissue culture dishes were scraped using a call scraper and suspended in assay buffer (D-MEM(Gibco-BRL Co.) containing 0.1% BSA and 25 mM HEPES adjust ed to pH 7.4) to give a cell suspension of a concentration of 6×10^6 cellls/mL. The test compound was diluted in the assay buffer to concentrations of […], and 100 μM. The remainder of the procedure was as described in Example 163.

THP-1 cells = experiment: Inhibition of cell chemotaxis caused by MCP-1 (THP-1 cells); assay type: cell-based, human; settings: MCP-1 20 ng/mL, 37° C. 2 hr, read-out: 50% inhibition concentration (IC50) of cell migration
Experimental: Measurement of Inhibition of Cell Chemotaxis
In order to determine the inhibition of call chemotaxis by the compounds of this invention, we measured call chemotaxis caused by monocyte chemotactic factor MCP-1 using the human monocytic leukemia cell line THP-1 as the chemotactic cell according to the method of Fall et al. (J. Immunol. Methods, […], 33, 239-247). 2×10^6 cells/mL of THP-1 cells (suspended in RPMI-1640 (Flow Laboratories Co.) +10% FCS) was placed in the upper chamber (200 μL) of a 96 well micro-chemotaxis chamber (Neuroprobe, registered tradename), and human recombinant MCP-1 in a same solution (Peprotech Co.) at a final concentration of 20 ng/mL was placed in the lower chamber, with a polycarbonate filter (PVP-free, Neuroprobe; registered tradename) placed between the two chambers, These were incubated at 37° C. for 2 hr in 5% CO2.
The filter was removed, and the cells which had migrated to the underside of the filter was fixed, stained using Diff Quick (Kokusai Shiyaku Co.) and then quantitated using a plate reader (Molecular Device Co.) at a wavelength of 550 nm to determine the index of cell migration as a mean of 3 wells, In addition. test compounds were placed in the upper chamber along with THP-1, and the inhibition of cell migration (inhibition IC50 (μM)) was determined. […]

[2] = target: T3, human MIP-1α binding to THP-1 cells (Homo sapiens, UniProt P32246); experiment: Inhibition of MIP-1α binding to THP-1 cells; settings: at 100 μM test compound; read-out: inhibitory activity (inhibition of human MIP-1α binding to THP-1 cells)
T3 construct: endogenous in cells; host or cells: THP-1 (human monocytic leukemia cell line), whole cells
T3 sequence (P32246 1-355): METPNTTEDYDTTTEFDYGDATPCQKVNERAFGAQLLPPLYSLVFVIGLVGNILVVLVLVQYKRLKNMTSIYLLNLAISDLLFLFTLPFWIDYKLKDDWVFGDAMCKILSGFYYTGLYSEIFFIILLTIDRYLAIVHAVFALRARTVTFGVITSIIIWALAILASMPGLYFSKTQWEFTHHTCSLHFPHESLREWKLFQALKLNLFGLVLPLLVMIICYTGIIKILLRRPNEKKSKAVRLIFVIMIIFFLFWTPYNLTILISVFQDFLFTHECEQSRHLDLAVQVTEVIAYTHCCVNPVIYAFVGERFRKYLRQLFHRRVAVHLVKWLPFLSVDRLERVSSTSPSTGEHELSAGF
Experimental: Measurement of Inhibition of MIP-1α Binding to THP-1 Cells by Test Compounds
as §1, with “Iodinated” for “[^125I]-labeled”, “MIP-1α (DuPont NEN Co.)” for “MCP-1 described above”, “250 nCi/mL” for “1 mCi/mL”, “the” for “the labeled”, “solution.” for “solution,”
as §2, with “Co.)” for “Co.,),”
To calculate the ability of test compounds to inhibit binding of human MIP-1α to THP-1 cells, non-specific binding determined by adding 100 ng of unlabeled human MIP-1α (Peprotech Co.) in place of the test compound was subtracted, while the counts with no test compound added was taken as 100%. […]

SMILES	inhibition at 100 µM [1]	other results
CS(=O)(=O)c1ccc(CN2CCCN(CCC(O)(c3ccco3)c3ccco3)CC2)cc1 [Compound No. 129, 1-[3,3-Di(2-furyl)-3-hydroxypropyl]-4-[4-(methylsulfonyl)benzyl]homopiperazine]	> 20%	–
c1ccc(C(CCN2CCCN(Cc3ccncc3)CC2)c2ccccc2)cc1 [compound 240]	–	IC50 (THP-1 cells): 30 µM
Cn1cccc1C(O)(CCN1CCCN(Cc2ccc(S(C)(=O)=O)cc2)CC1)c1ccccc1 (centres unmarked) [Compound No. 136, 1-[3-Hydroxy-3-(1-methyl-2-pyrrolyl)-3-phenylpropyl]-4-[4-(methylsulfonyl)benzyl]homopiperazine]	> 20%	–
CS(=O)(=O)c1ccc(CN2CCCN(CCC(O)(c3ccc(O)cc3)c3ccc(O)cc3)CC2)cc1 [Compound No. 119, 1-[3,3-bis(4-Hydroxyphenyl)-3-hydroxypropyl]-4-[4-(methylsulfonyl)benzyl]homopiperazine]	> 20%	–
NC(=O)c1ccc(CN2CCCN(CCC(c3ccccc3)c3ccccc3)CC2)cc1 [Compound No. 55, 1-(3,3-Diphenylpropyl)-4-(4-carbamoylbenzyl)homopiperazine]	> 20%	–
OC(CCN1CCCN(Cc2ccc(Cl)cc2)CC1)(c1ccccc1)c1ccccc1 [Compound No. 107, 1-(3-Hydroxy-3,3-diphenylpropyl)-4-(4-chlorobenzyl)homopiperazine]	> 20%	inhibition at 100 µM [2]: > 20%

Now from value to molecule, other results behind:

inhibition at 100 µM [1]	SMILES	other results
> 20%	CS(=O)(=O)c1ccc(CN2CCCN(CCC(c3ccccc3)c3ccccc3)CC2)cc1 [compound 36]	IC50 (MCP-1 receptor): 17 µM; IC50 (THP-1 cells; Homo sapiens): 9 µM
> 20%	CC(C)(C)OC(=O)N1CCCN(CCC(O)(c2ccccc2)c2cccc(O)c2)CC1 (centres unmarked) [Compound No. 294, 1-(tert-butyloxycarbonyl)-4-[3-hydroxy-3-(3-hydroxyphenyl)-3-phenylpropyl]homopiperazine]	–
> 20%	Oc1cccc(C(O)(CCN2CCCNCC2)c2ccccc2)c1 (centres unmarked) [Compound No. 295, 1-[3-hydroxy-3-(3-hydroxyphenyl)-3-phenylpropyl]homopiperazine]	–
> 20%	CC(=O)Nc1cccc(C(O)(CCN2CCCN(Cc3ccc(S(C)(=O)=O)cc3)CC2)c2ccccc2)c1 (centres unmarked) [Compound No. 162, 1-[3-(3-Acetylaminophenyl)-3-hydroxy-3-phenylpropyl]-4-[4-(methylsulfonyl)benzyl]homopiperazine]	–
> 20%	CC(=O)N1CCCN(CCC(O)(c2ccccc2)c2cccc(O)c2)CC1 (centres unmarked) [Compound No. 296, 1-acetyl-4-[3-hydroxy-3-(3-hydroxyphenyl)-3-phenylpropyl]homopiperazine]	–
